Data taken from publication PMC10329973 (Clinical pharmacology in drug development, 2023).
Values joined by “and” are separate entries in the source; they are usually repeats but may differ in a detail not shown here. Identical values can stand only once.

Columns and labels:
[1] = tested on: healthy adult volunteers; test: Multiple ascending dose study NP10679-102, safety and tolerability; assay type: in vivo, human; settings: MAD; for Subjects with at least one TEAE / TEAE, system organ class: Blood and lymphatic system disorders / TEAE, system organ class: Eye disorders / TEAE, system organ class: Gastrointestinal disorders / TEAE, system organ class: General disorders and administration site conditions / TEAE, system organ class: Injury, poisoning and procedural complications / TEAE, system organ class: Investigations / TEAE, system organ class: Musculoskeletal and connective tissue disorders / TEAE, system organ class: Nervous system disorders / TEAE, system organ class: Skin and subcutaneous tissue disorders / TEAE, system organ class: Vascular disorders / TEAE: Anaemia / TEAE: Asthenia / TEAE: Back pain / TEAE: Blood pressure diastolic decreased / TEAE: Contusion / TEAE: Dizziness / TEAE: Dysgeusia / TEAE: Erythema / TEAE: Fatigue / TEAE: Head injury / TEAE: Headache / TEAE: Nausea / TEAE: Pain / TEAE: Peripheral swelling / TEAE: Phlebitis / TEAE: Somnolence / TEAE: Syncope / TEAE: Vision blurred: N = 6
[2] = tested on: GABAergic receptors; settings: cited from earlier work
[3] = tested on: pre-clinical models; settings: cited from earlier work

Q: What does the source list for O=C1CCc2cc(OC[C@H](O)CN3CCN(c4ccc(C(F)(F)F)cc4)CC3)ccc2N1 [NP10679, (R)-6-(2-Hydroxy-3-(4-(4-(trifluoromethyl)phenyl)piperazin-1-yl)propoxy)-3,4-dihydroquinolin-2(1H)-one]?
A: dissociative symptoms or cognitive impairment (CADSS, DSST) [1]: no evidence; serious adverse events (SAEs) [1]: No serious adverse events; Subjects with at least one TEAE ([1]; 25 mg IV once daily x 5 days): 5 (83.3%) n (%); TEAE, system organ class: Blood and lymphatic system disorders ([1]; 25 mg IV once daily x 5 days): 2 (33.3%) n (%); TEAE, system organ class: Eye disorders ([1]; 25 mg IV once daily x 5 days): 0 n (%); TEAE, system organ class: Gastrointestinal disorders ([1]; 25 mg IV once daily x 5 days): 0 n (%); TEAE, system organ class: General disorders and administration site conditions ([1]; 25 mg IV once daily x 5 days): 1 (16.7%) n (%); TEAE, system organ class: Injury, poisoning and procedural complications ([1]; 25 mg IV once daily x 5 days): 2 (33.3%) n (%); TEAE, system organ class: Investigations ([1]; 25 mg IV once daily x 5 days): 1 (16.7%) n (%); TEAE, system organ class: Musculoskeletal and connective tissue disorders ([1]; 25 mg IV once daily x 5 days): 0 n (%); TEAE, system organ class: Nervous system disorders ([1]; 25 mg IV once daily x 5 days): 3 (50.0%) n (%); TEAE, system organ class: Skin and subcutaneous tissue disorders ([1]; 25 mg IV once daily x 5 days): 0 n (%); TEAE, system organ class: Vascular disorders ([1]; 25 mg IV once daily x 5 days): 0 n (%); TEAE: Anaemia ([1]; 25 mg IV once daily x 5 days): 2 (33.3%) n (%); TEAE: Asthenia ([1]; 25 mg IV once daily x 5 days): 0 n (%); TEAE: Back pain ([1]; 25 mg IV once daily x 5 days): 0 n (%); TEAE: Blood pressure diastolic decreased ([1]; 25 mg IV once daily x 5 days): 1 (16.7%) n (%); TEAE: Contusion ([1]; 25 mg IV once daily x 5 days): 2 (33.3%) n (%); TEAE: Dizziness ([1]; 25 mg IV once daily x 5 days): 0 n (%); TEAE: Dysgeusia ([1]; 25 mg IV once daily x 5 days): 1 (16.7%) n (%); TEAE: Erythema ([1]; 25 mg IV once daily x 5 days): 0 n (%); TEAE: Fatigue ([1]; 25 mg IV once daily x 5 days): 1 (16.7%) n (%); TEAE: Head injury ([1]; 25 mg IV once daily x 5 days): 0 n (%); TEAE: Headache ([1]; 25 mg IV once daily x 5 days): 2 (33.3%) n (%); TEAE: Nausea ([1]; 25 mg IV once daily x 5 days): 0 n (%); TEAE: Pain ([1]; 25 mg IV once daily x 5 days): 0 n (%); TEAE: Peripheral swelling ([1]; 25 mg IV once daily x 5 days): 0 n (%); TEAE: Phlebitis ([1]; 25 mg IV once daily x 5 days): 0 n (%); TEAE: Somnolence ([1]; 25 mg IV once daily x 5 days): 0 n (%); TEAE: Syncope ([1]; 25 mg IV once daily x 5 days): 0 n (%); TEAE: Vision blurred ([1]; 25 mg IV once daily x 5 days): 0 n (%); Subjects with at least one TEAE ([1]; 50 mg IV once daily x 5 days): 3 (50.0%) n (%); TEAE, system organ class: Blood and lymphatic system disorders ([1]; 50 mg IV once daily x 5 days): 0 n (%); TEAE, system organ class: Eye disorders ([1]; 50 mg IV once daily x 5 days): 0 n (%); TEAE, system organ class: Gastrointestinal disorders ([1]; 50 mg IV once daily x 5 days): 0 n (%); TEAE, system organ class: General disorders and administration site conditions ([1]; 50 mg IV once daily x 5 days): 2 (33.3%) n (%); TEAE, system organ class: Injury, poisoning and procedural complications ([1]; 50 mg IV once daily x 5 days): 1 (16.7%) n (%); TEAE, system organ class: Investigations ([1]; 50 mg IV once daily x 5 days): 0 n (%); TEAE, system organ class: Musculoskeletal and connective tissue disorders ([1]; 50 mg IV once daily x 5 days): 0 n (%); TEAE, system organ class: Nervous system disorders ([1]; 50 mg IV once daily x 5 days): 3 (50.0%) n (%); TEAE, system organ class: Skin and subcutaneous tissue disorders ([1]; 50 mg IV once daily x 5 days): 1 (16.7%) n (%); TEAE, system organ class: Vascular disorders ([1]; 50 mg IV once daily x 5 days): 0 n (%); TEAE: Anaemia ([1]; 50 mg IV once daily x 5 days): 0 n (%); TEAE: Asthenia ([1]; 50 mg IV once daily x 5 days): 0 n (%); TEAE: Back pain ([1]; 50 mg IV once daily x 5 days): 0 n (%); TEAE: Blood pressure diastolic decreased ([1]; 50 mg IV once daily x 5 days): 0 n (%); TEAE: Contusion ([1]; 50 mg IV once daily x 5 days): 1 (16.7%) n (%); TEAE: Dizziness ([1]; 50 mg IV once daily x 5 days): 0 n (%); TEAE: Dysgeusia ([1]; 50 mg IV once daily x 5 days): 0 n (%); TEAE: Erythema ([1]; 50 mg IV once daily x 5 days): 1 (16.7%) n (%); TEAE: Fatigue ([1]; 50 mg IV once daily x 5 days): 1 (16.7%) n (%); TEAE: Head injury ([1]; 50 mg IV once daily x 5 days): 0 n (%); TEAE: Headache ([1]; 50 mg IV once daily x 5 days): 0 n (%); TEAE: Nausea ([1]; 50 mg IV once daily x 5 days): 0 n (%); TEAE: Pain ([1]; 50 mg IV once daily x 5 days): 1 (16.7%) n (%); TEAE: Peripheral swelling ([1]; 50 mg IV once daily x 5 days): 1 (16.7%) n (%); TEAE: Phlebitis ([1]; 50 mg IV once daily x 5 days): 0 n (%); TEAE: Somnolence ([1]; 50 mg IV once daily x 5 days): 3 n (%) and 3 (50.0%) n (%); TEAE: Syncope ([1]; 50 mg IV once daily x 5 days): 0 n (%); TEAE: Vision blurred ([1]; 50 mg IV once daily x 5 days): 0 n (%); Subjects with at least one TEAE ([1]; 100 mg IV once daily x 5 days): 6 (100%) n (%); TEAE, system organ class: Blood and lymphatic system disorders ([1]; 100 mg IV once daily x 5 days): 1 (16.7%) n (%); TEAE, system organ class: Eye disorders ([1]; 100 mg IV once daily x 5 days): 0 n (%); TEAE, system organ class: Gastrointestinal disorders ([1]; 100 mg IV once daily x 5 days): 1 (16.7%) n (%); TEAE, system organ class: General disorders and administration site conditions ([1]; 100 mg IV once daily x 5 days): 1 (16.7%) n (%); TEAE, system organ class: Injury, poisoning and procedural complications ([1]; 100 mg IV once daily x 5 days): 1 (16.7%) n (%); TEAE, system organ class: Investigations ([1]; 100 mg IV once daily x 5 days): 0 n (%); TEAE, system organ class: Musculoskeletal and connective tissue disorders ([1]; 100 mg IV once daily x 5 days): 0 n (%); TEAE, system organ class: Nervous system disorders ([1]; 100 mg IV once daily x 5 days): 4 (66.7%) n (%); TEAE, system organ class: Skin and subcutaneous tissue disorders ([1]; 100 mg IV once daily x 5 days): 0 n (%); TEAE, system organ class: Vascular disorders ([1]; 100 mg IV once daily x 5 days): 1 (16.7%) n (%); TEAE: Anaemia ([1]; 100 mg IV once daily x 5 days): 1 (16.7%) n (%); TEAE: Asthenia ([1]; 100 mg IV once daily x 5 days): 1 (16.7%) n (%); TEAE: Back pain ([1]; 100 mg IV once daily x 5 days): 0 n (%); TEAE: Blood pressure diastolic decreased ([1]; 100 mg IV once daily x 5 days): 0 n (%); TEAE: Contusion ([1]; 100 mg IV once daily x 5 days): 0 n (%); TEAE: Dizziness ([1]; 100 mg IV once daily x 5 days): 0 n (%); TEAE: Dysgeusia ([1]; 100 mg IV once daily x 5 days): 0 n (%); TEAE: Erythema ([1]; 100 mg IV once daily x 5 days): 0 n (%); TEAE: Fatigue ([1]; 100 mg IV once daily x 5 days): 0 n (%); TEAE: Head injury ([1]; 100 mg IV once daily x 5 days): 1 (16.7%) n (%); TEAE: Headache ([1]; 100 mg IV once daily x 5 days): 2 (33.3%) n (%); TEAE: Nausea ([1]; 100 mg IV once daily x 5 days): 1 (16.7%) n (%); TEAE: Pain ([1]; 100 mg IV once daily x 5 days): 1 (16.7%) n (%); TEAE: Peripheral swelling ([1]; 100 mg IV once daily x 5 days): 0 n (%); TEAE: Phlebitis ([1]; 100 mg IV once daily x 5 days): 1 (16.7%) n (%); TEAE: Somnolence ([1]; 100 mg IV once daily x 5 days): 3 n (%) and 3 (50.0%) n (%); TEAE: Syncope ([1]; 100 mg IV once daily x 5 days): 1 (16.7%) n (%); TEAE: Vision blurred ([1]; 100 mg IV once daily x 5 days): 0 n (%); somnolence upon repeat dosing ([1]; 5 days of dosing): no signs of increased somnolence; activity at GABAergic receptors [2]: does not have activity; somnolence in pre-clinical models [3]: leads to somnolence at doses above those necessary to achieve efficacy
